Measurements taken from patent publication US6562829B1, “Treatment of hepatic cirrhosis” (Hadasit Medical Research Services & Development Co., Ltd., priority 1997, dated 2003).
Like-named read-outs stand apart in the source and are kept apart here.

What was measured:
[1] = tested on: bile duct ligation-induced fibrosis; assay type: in vivo, rat
Description: In addition to dimethylnitrosamine-induced liver fibrosis, a second model of liver fibrosis in rats is available. […] Tox., 15:449-453, 1995]. Thus, the particular advantage of the bile duct ligation model is that any protective treatments must directly protect the liver from the pathological changes induced by fibrosis, rather than indirectly altering the effects of the exogeneous substance which is used to cause liver fibrosis in the animal model. The experimental method was as follows.
Male Wistar rats, weighing 200-250 g, were divided into four experimental groups with 3 rats in each group. […] It should be noted that all animals in the first two groups underwent sham operations which included all steps of the actual surgical procedure, with the exception of the bile duct ligation itself. The third group had bile duct ligation surgery and was not given Halofuginone. The fourth group had bile duct ligation surgery and was given Halofuginone. The actual surgical procedure was essentially similar to that reported in the literature [Kountaras, J. et al., Br. J. Exp. Pathol., 65:305-311, 1984].
All animals were given drinking water ad libitum. Rats which were given Halofuginone were fed Halofuginone in the normal rat diet at a concentration of 5 mg per kg diet weight for one week before surgery and for the duration of the experimental period, which was either 3 or 7 days after the surgical operation. Rats were sacrificed at the end of the experimental period. Both collagen content (through Sirius red staining) and collagen α1(I) gene expression were measured as described above in Example 1. In addition, serum alkaline phosphatase, alanine aminotransferase and aspartate aminotransferase levels were measured […] by a Hitachi Auto-analyzer System of Boerringher-Mannheim.

stellate cells [2] = test: Smooth muscle actin in stellate cells, TAA treatment experiment (Example 5); assay type: in vivo, rat; settings: Halofuginone administered after induction of liver cirrhosis by TAA
Description: (§1) Liver cirrhosis was induced with TAA as previously described. […] These cells are located in the subendothelial space, between the apical membrane of hepatocytes and the ablumenal side of the sinusoidal endothelial cells. The intimate association between the stellate cells and the neighboring cell types facilitates intercellular transport and paracrine stimulation by soluble mediators. In injured liver, these cells acquire features of myofibroblasts and express smooth muscle cytoskeletal markers such as smooth muscle actin. […] The experimental method was as follows.
(§2) Rats were treated with TAA alone or TAA with Halofuginone as previously described in Example 4 for the use of Halofuginone as both a prophylactic treatment and a treatment for existing liver cirrhosis. Tissue samples were also prepared as previously described, except that rather than undergoing staining for collagen, the samples were incubated with smooth muscle actin antibodies in a 1:1000 dilution, with detection performed by the Histomouse SP kit according to the instructions of the manufacturer (Zymed Laboratories Inc., San Francisco, Calif., USA).

collagen type I = settings: as demonstrated in U.S. Pat. No. 5,449,678; cited from earlier work
[3] = tested on: mild dimethylnitrosamine-induced fibrosis; test: Mild dimethylnitrosamine-induced fibrosis in rat liver (Example 2); assay type: in vivo; settings: 4 weeks
Experimental: The specific experimental method used was similar to that of Example 1, except that the dimethylnitrosamine-treated rats were only given 0.25% dimethylnitrosamine in saline, a much lower dose than that given in Example 1 above. Also, the duration of treatment was longer before the rats were sacrificed: 4 weeks as opposed to 3 weeks in Example 1.
The expression of the collagen α1(I) gene was measured as described in Example 1 above. For hydroxyproline analysis, liver samples were hydrolyzed for 22 hours at 110° C. with 6 N HCl. Nitrogen was determined after Kjeldahl digestion by the spectrophotometric procedure using an autoanalyzer as described by Krom [M. D. Krom, Analyst, 105:305-16, 1980]. The collagen-unique amino acid hydroxyproline from the same hydrolysate was determined by amino acid analysis (Biotronik LC 5000, Germany) after post-column derivatization on a cation exchange column (BTC 2710, Biotronik). The results are expressed as the percentage of collagen in total liver proteins.

stellate cells [4] = test: Smooth muscle actin in stellate cells, TAA prevention experiment (Example 5); assay type: in vivo, rat; settings: prophylactic administration of Halofuginone with TAA
Description: as §1, §2

[5] = tested on: TAA-induced liver cirrhosis; assay type: in vivo, rat
Experimental: (§3) Male Sprague-Dawley rats were divided into three groups. Two groups were injected intraperitoneally with TAA twice weekly for 12 weeks, at a dose of 200 mg/kg body (Muller, A. et al., Exp. Pathol., 34:229-236, 1988; Hori, N. et al., Dig. Dis. Sci., 38:2195-2202, 1993). […] The other group of rats, control rats, was injected with saline. One group of TAA-treated rats and one control group were fed Halofuginone in the diet at a dose of 5 ppm.
For this experiment, rats in group 1 received only Halofuginone (n=4); rats in group 2 received TAA alone without Halofuginone (n=6); and rats in group 3 received TAA with Halofuginone (n=6). Groups 1and 3 received Halofuginone starting three days before the TAA injections were administered. At the end of the experimental period, the rats were sacrificed and the liver was removed and weighed.
(§4) Liver samples were taken for histological examination. Briefly, the tissue samples were collected into phosphate-buffered saline (PBS) and fixed overnight in 4% paraformaldehyde in PBS at 4° C. Serial 5 μm sections were prepared after the samples had been dehydrated in graded ethanol solutions, cleared in chloroform and embedded in Paraplast. Differential staining of collagenous and non-collagenous proteins was performed with 0.1% Sirius red and 0.1% fast green as a counter-stain in picric acid. This procedure stains collagen red [Gascon-Barre, M., et al., J. Histochem. Cytochem., 37:377-381, 1989].
In addition, the livers were scored in a double-blind evaluation, on a scale of 0-4, for the appearance of fibrotic tissue.

[6] = tested on: dimethylnitrosamine-induced hepatic fibrosis; test: Dimethylnitrosamine-induced severe liver fibrosis in rats (Example 1); assay type: in vivo
Experimental: The experimental method was as follows. Male Sprague-Dawley rats were divided into four groups. Two groups were injected intraperitoneally with 1% dimethylnitrosamine in saline for three consecutive days per week for 3 weeks, at a dose of 1 ml/kg body weight. This dosage regimen will induce severe liver fibrosis. The other two groups of rats, control rats, were injected with saline. One group of dimethylnitrosamine-treated rats and one control group were fed Halofuginone in the diet at a dose of 5 mg/kg weight of diet, starting three days before the dimethylnitrosamine injections were administered. At the end of the experimental period, the rats were sacrificed and the liver was removed and weighed.
as §4
Liver samples were then hybridized with a probe for rat collagen α1(I) expression. For hybridization with the genetic probe, the sections were deparafinized in xylene, rehydrated through a graded series of ethanol solutions, rinsed in distilled water for 5 minutes and then incubated in 2×SSC at 70° C. for 30 minutes. The sections were then rinsed in distilled water and treated with pronase, 0.125 mg/ml in 50 mM Tris-HCl, 5 mM EDTA, pH 7.5, for 10 minutes. After digestion, the slides were rinsed with distilled water, post-fixed in 10% formalin in PBS and blocked in 0.2% glycine. After blocking, the slides were rinsed in distilled water, rapidly dehydrated through graded ethanol solutions and air-dried for several hours. Before hybridization, the 1600 bp rat collagen α1(I) insert was cut out from the original plasmid, pUC18, and inserted into the pSafyre plasmid. The sections were then hybridized with this probe after digoxigenin-labeling [M. Pines et al., Matrix Biology, 14:765-71, 1996].

[7] = tested on: TAA-induced liver cirrhosis; test: Treatment of existing TAA-induced liver cirrhosis in rats (Example 4); assay type: in vivo, rat
Experimental: as §3, §4
In addition, the livers were scored in a double-blind evaluation, on a scale of 0-4, for the appearance of fibrotic tissue. […]

[8] = bile duct ligated rats fed Halofuginone vs bile duct ligation only
[9] = bile duct ligated rats, Halofuginone 5 mg per kg diet

O=C(CC1NCCC[C@H]1O)Cn1cnc2cc(Br)c(Cl)cc2c1=O (some centres unmarked) [Halofuginone]
bile duct ligation-induced increase in collagen synthesis [1, 8]: significantly reduced
bile duct ligation-induced increase in collagen α1(I) gene expression [1, 8]: significantly reduced
serum alanine aminotransferase, higher in rats not given Halofuginone than in rats fed Halofuginone [1, 9]: 56%
serum alkaline phosphatase in rats not given Halofuginone relative to rats fed Halofuginone [1, 9]: 257%
serum aspartate aminotransferase, higher in rats not given Halofuginone than in rats fed Halofuginone [1, 9]: 15%
pathological expression of smooth muscle actin by stellate cells (stellate cells [2]): significantly reduced
synthesis of collagen type I in bone chondrocytes in vitro (collagen type I): inhibits
increased collagen α1(I) gene expression in liver ([3]; 0.25% dimethylnitrosamine plus Halofuginone): abolished
dimethylnitrosamine-induced increase in liver hydroxyproline concentration ([3]; 0.25% dimethylnitrosamine, Halofuginone in diet): completely inhibited
pathological expression of smooth muscle actin by stellate cells (stellate cells [4]): prevented
reduction of fibrotic scores for liver ([5]; Halofuginone plus TAA vs TAA alone (prevention)): 43%
effect on body weight ([5]; rat, in vivo): no effect
effect on spleen weight ([5]; rat, in vivo): no effect
thickening of collagen bundles in liver (Sirius red staining) ([5]; rats given both TAA (200 mg/kg i.p. twice weekly, 12 weeks) and Halofuginone 5 ppm in diet from three days before TAA): markedly reduced
average double-blind liver fibrosis score ([5]; scale of 0-4, rats given both Halofuginone and TAA (prevention), TAA alone 2.16±0.7): 1.25±0.8
toxicity (survival) ([6]; Halofuginone alone, 5 mg/kg diet, all six rats survived): no toxicity
liver weight ([6]; rat, in vivo): 11 ± 1.5 g
expression of collagen α1(I) gene in liver (in situ hybridization) ([6]; rats given 1% dimethylnitrosamine i.p. and Halofuginone 5 mg/kg diet, 3 weeks, compared to dimethylnitrosamine alone): marked reduction
liver weight ([6]; rats given both Halofuginone and dimethylnitrosamine, dimethylnitrosamine alone 4.5 g and 5.0 g): 8.5 ± 1.7 g
thickening of collagen bundles in liver (Sirius red staining) ([6]; rats given both dimethylnitrosamine and Halofuginone 5 mg/kg diet): markedly reduced
rats died by the end of three weeks ([6]; rats given both dimethylnitrosamine and Halofuginone, four of six died with dimethylnitrosamine alone): one of the six
thickening of collagen bundles in liver (Sirius red staining) ([7]; Halofuginone given for four weeks after twelve weeks of TAA): markedly reduced
average double-blind liver fibrosis score ([7]; scale of 0-4, group 3, Halofuginone after twelve weeks TAA, TAA alone 2.16±0.7 (group 1) or 3.06±1.7 (group 2)): 1.18±1.6
